Test results from ChEMBL document CHEMBL3407496, “Chalcones and their therapeutic targets for the management of diabetes: structural and pharmacological perspectives” (Eur J Med Chem, 2015).

Columns and labels:
[1] = biological target: T1, Tyrosine-protein phosphatase non-receptor type 1 (Homo sapiens, UniProt P18031); experiment: Competitive inhibition of PTP1B (unknown origin) using p-nitrophenyl phosphate as substrate
T1 sequence (P18031 whole entry): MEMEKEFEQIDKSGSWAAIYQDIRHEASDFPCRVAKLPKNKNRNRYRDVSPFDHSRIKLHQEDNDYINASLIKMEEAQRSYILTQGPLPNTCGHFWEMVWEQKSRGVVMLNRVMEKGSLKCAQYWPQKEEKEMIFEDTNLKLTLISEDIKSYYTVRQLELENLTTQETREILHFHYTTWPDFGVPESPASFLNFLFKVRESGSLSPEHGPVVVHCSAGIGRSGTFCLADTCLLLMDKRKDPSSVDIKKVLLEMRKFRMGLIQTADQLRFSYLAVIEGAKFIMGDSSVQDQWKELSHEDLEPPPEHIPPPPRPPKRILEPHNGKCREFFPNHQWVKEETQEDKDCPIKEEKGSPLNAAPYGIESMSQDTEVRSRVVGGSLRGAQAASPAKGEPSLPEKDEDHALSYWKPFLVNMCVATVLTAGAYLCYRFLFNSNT

[2] = biological target: Aldo-keto reductase family 1 member B1 (Homo sapiens) (UniProt P15121); experiment: Inhibition of aldose reductase (unknown origin) at 10 ug/ml
[3] = species: Homo sapiens; experiment: Inhibition of ALR1 (unknown origin); conditions: concentration not given here
[4] = biological target: Aldo-keto reductase family 1 member B1 (Homo sapiens) (UniProt P15121); experiment: Inhibition of ALR2 (unknown origin); conditions: concentration not given here
[5] = biological target: T2, Solute carrier family 2, facilitated glucose transporter member 4 (Rattus norvegicus) (UniProt P19357); experiment: Induction of GLUT4 translocation in rat L6 cells assessed as increase in 2-deoxyglucose uptake relative to control; format: cell-based
T2 sequence (whole entry): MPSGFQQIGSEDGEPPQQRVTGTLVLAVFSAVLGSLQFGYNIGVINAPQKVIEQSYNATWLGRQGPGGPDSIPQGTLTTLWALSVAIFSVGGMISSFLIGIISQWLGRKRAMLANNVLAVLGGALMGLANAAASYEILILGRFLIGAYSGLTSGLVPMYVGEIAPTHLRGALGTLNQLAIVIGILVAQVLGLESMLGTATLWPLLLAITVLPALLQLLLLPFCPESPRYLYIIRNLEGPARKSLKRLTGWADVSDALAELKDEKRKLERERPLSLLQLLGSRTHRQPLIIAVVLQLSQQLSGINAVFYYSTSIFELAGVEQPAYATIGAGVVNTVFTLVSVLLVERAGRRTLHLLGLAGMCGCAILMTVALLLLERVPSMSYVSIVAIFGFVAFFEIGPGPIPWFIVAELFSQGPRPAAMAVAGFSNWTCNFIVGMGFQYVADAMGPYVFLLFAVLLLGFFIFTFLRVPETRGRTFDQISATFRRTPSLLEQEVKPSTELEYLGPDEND

[6] = biological target: T1, Tyrosine-protein phosphatase non-receptor type 1; experiment: Inhibition of PTP1B (unknown origin)
[7] = Non-competitive inhibition of alpha-glucosidase (unknown origin); set-up: species or system Homo sapiens
[8] = test system: Oryctolagus cuniculus; experiment: Reduction of blood glucose in normoglycemic rabbit at 50 mg/kg, po after 4 hrs; format: functional; set-up: scale not given: the % may be the effect or the level left

Structure (SMILES): O=C(/C=C/c1ccco1)c1ccc(O)cc1O
- IC50 [1]: 2.49 µM

Structure (SMILES): C=C(C)C(CCC(C)(C)O)Cc1c(O)cc(OC)c(C(=O)/C(O)=C/c2ccc(O)cc2O)c1O (stereo unspecified)
- inhibition [2]: 53.7%

Structure (SMILES): COc1ccc(/C=C/C(=O)c2ccc(OC)cc2O)cc1
- inhibition [3]: 35%
- inhibition [4]: 35%

Structure (SMILES): CC(C)=CCC/C(C)=C/Cc1c(O)ccc(C(=O)/C=C/c2ccc(O)cc2)c1O
- Ratio [5]: 1.9

Structure (SMILES): CC(C)=CCc1cc(C(=O)/C=C/c2ccc(O)c(O)c2)c(O)cc1O [BROUSSOCHALCONE A]
- IC50 [6]: 21.5 µM
- IC50 [7]: 5.3 µM

Structure (SMILES): COc1cc(O)c(CC=C(C)C)c(O)c1C(=O)/C(O)=C/c1ccc(O)cc1
- inhibition [2]: 53.7%

Structure (SMILES): COc1ccc(C(=O)/C=C/c2ccc(O)cc2)c(O)c1CC=C(C)C
- Ratio [5]: 1.9

Structure (SMILES): O=C(/C=C/c1ccco1)c1cccc(Cl)c1
- IC50 [1]: 2.9 µM

Structure (SMILES): C=C(C)C(CC=C(C)C)Cc1c(O)cc(OC)c(C(=O)/C(O)=C/c2ccc(O)cc2O)c1O (stereo unspecified)
- inhibition [2]: 53.7%

Structure (SMILES): CSc1ccc(/C=C/C(=O)c2ccc(O)cc2O)cc1
- inhibition [3]: 35%
- inhibition [4]: 35%

Structure (SMILES): CC1(C)CCc2cc(C(=O)/C=C/c3ccc(O)cc3)c(O)cc2O1
- IC50 [7]: 5.3 µM

Structure (SMILES): Cc1ccc(S(=O)(=O)CC(=O)Cc2ccccc2C(=O)/C=C/c2ccc(Cl)cc2Cl)cc1
- Activity [8]: 38.73%

Structure (SMILES): CC(C)=CCc1cc(C(=O)/C=C/c2ccc(O)cc2)c(O)cc1O [BROUSSOCHALCONE B]
- IC50 [7]: 5.3 µM

Structure (SMILES): O=C(/C=C/c1ccc(Cl)cc1)c1ccc(O)cc1O
- inhibition [3]: 35%
- inhibition [4]: 35%

Structure (SMILES): CC1(C)CCc2cc(C(=O)/C=C/c3ccc(O)c(O)c3)c(O)cc2O1
- IC50 [7]: 5.3 µM

Structure (SMILES): COc1cc(O)c(CC=C(C)C)c(O)c1C(=O)/C=C/c1ccc(O)cc1 [XANTHOHUMOL]
- IC50 [7]: 8.8 µM

Structure (SMILES): CC(/C=C1\SC(=S)N(CC(=O)O)C1=O)=C\c1ccccc1
- inhibition [2]: 55.6%
